In patent publication US20240252508A1, “Novel glucose uptake inhibitors for use in the treatment of cancer” (NOVELYEAST BV, priority 2021, published 2024):

Experiments:
[1] = test system: tps1Δ cells; experiment: Growth rescue of tps1Δ strain on glucose (growth curves, 2% galactose medium); type: cell-based, S. cerevisiae
Outline: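 tps1Δ yeast pregrown in Complete Synthetic medium with 2% galactose, washed, resuspended to OD 0.1; compounds added 10 min before glucose. Growth followed as OD595 every 30 min at 30 °C in at least three technical replicates.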

[2] = test system: tps1Δ cells; experiment: Glu6P and Fru1,6bisP levels after glucose addition to tps1Δ cells; type: cell-based, S. cerevisiae
Procedure: For measuring metabolite levels, cells were typically grown in Complete Synthetic medium. […] However, when comparing the effect of Warbicins on metabolite profiles of wild type and tps1Δ strains (FIG. 2f-k), cells were grown on 2% galactose. When grown to exponential phase, cells were harvested by centrifugation and washed twice with ice-cold 25 mM 2-(N-Morpholino)ethanesulfonic acid (MES) buffer, pH 6. Cells were suspended in Complete Synthetic medium without sugar at a concentration of 75 mg (wet weight)/mL followed by a temperature equilibration at 30° C. in a shaking water bath for 30 min. Depending on the experiment, a final concentration of 2.5 mM, 7.5 mM or 10 mM glucose was added to the cell suspension. Compounds were added 10 min prior to glucose addition. […]
Through endpoint measurement of the absorbance of NADH or NADPH at 340 nm, metabolite concentrations were calculated by applying Lambert's Law. Different metabolites were measured through the use of coupled enzymatic reactions. […] Depending on the measured metabolite, different co-factors and auxiliary enzymes were added. For measuring glucose-6-phosphate, 0.8 mg/ml NADP^+ was added to the assay buffer after which the baseline absorbance was measured. […] After stabilization of the OD340 spectra, ATP concentrations were measured by additionally adding 10 mM MgCl2 and 0.5 mM glucose to the assay buffer. […]

[3] = test system: A549 lung adenocarcinoma cells; experiment: A549 cell proliferation / growth inhibition; type: cell-based, human; details: 50 μM compound, 1 mM glucose
Outline: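 A549 growth screened in RPMI with 1 mM glucose, compounds at 50 μM; cell number from counts of Hoechst-stained nuclei after 3 days. Growth curves also followed by IncuCyte phase-contrast confluency over 3–5 days (1000–1500 cells/well), DMSO ≤0.1%, ≥4 technical repeats.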

## Cc1nc(SCC(N)=O)c2c3c(sc2n1)CCCC3 [55C]
[1]; 100 μM compound, 2.5 mM glucose
  Rescue of the tps1Δ strain on 2.5 mM glucose at 100 μM: No
[1]; 100 μM, 2% galactose + 2.5 mM glucose
  Rescue of tps1Δ cells on 2.5 mM glucose: highly active
[2]
  Glu6P and Fru1,6bisP hyperaccumulation after addition of 2.5 mM glucose: did not prevent hyperaccumulation of sugar phosphates
[3]
  Selected from primary screen for growth inhibition of A549 cells at 50 μM: No
